The data set can be described thus: activity coefficient (dimensionless); of the first substance listed, at infinite dilution; xn = mol fraction of the nth substance listed. Conditions: Liquid, gas stripping method, x1 = 0.

± gives the expanded uncertainty stated by the source.

In the case of `CCCC` [butane] + C=CCO, the activity coefficient runs as follows: (249.98 K) 9.71 ± 0.29; (270.01 K) 8.84 ± 0.27; (289.99 K) 8.2 ± 0.25; (310 K) 7.58 ± 0.23; (329.99 K) 6.79 ± 0.2.
As to `C/C=C\C` [(Z)-2-butene] + C=CCO, the activity coefficient turned out to be 5.53 ± 0.17 (249.94 K); 5.28 ± 0.16 (270.06 K); 5.06 ± 0.15 (289.99 K); 4.85 ± 0.15 (309.98 K); 4.57 ± 0.14 (329.99 K).
Consider `C=CC=C` [1,3-butadiene] + C=CCO, for which the activity coefficient came to 4.12 ± 0.12 (250 K); 4.06 ± 0.12 (270.01 K); 4.02 ± 0.12 (289.99 K); 3.89 ± 0.12 (310 K); 3.59 ± 0.11 (329.99 K).
For `C/C=C/C` [(E)-2-butene] + C=CCO, the activity coefficient runs as follows: (250 K) 6.23 ± 0.19; (270 K) 5.85 ± 0.18; (289.99 K) 5.67 ± 0.17; (310 K) 5.38 ± 0.16; (329.99 K) 4.91 ± 0.15.
In the case of `CC(C)C` [2-methylpropane] + C=CCO, the activity coefficient came out at 10.5 ± 0.3 (249.94 K); 9.51 ± 0.29 (270.01 K); 8.83 ± 0.26 (289.99 K); 8.11 ± 0.24 (310 K); 7.14 ± 0.21 (329.99 K).
As for `CCCl` [chloroethane] + C=CCO, the activity coefficient is, setting by setting: (249.94 K) 3.09 ± 0.09; (270.06 K) 3.07 ± 0.09; (289.99 K) 2.99 ± 0.09; (309.98 K) 2.87 ± 0.09; (329.99 K) 2.69 ± 0.08.
As for `COC` [dimethyl ether] + C=CCO, the activity coefficient worked out at 1.23 ± 0.04 (249.94 K); 1.22 ± 0.04 (270.06 K); 1.2 ± 0.04 (289.99 K); 1.2 ± 0.04 (309.98 K); 1.16 ± 0.04 (329.99 K).
Turning to `C=CCC` [1-butene] + C=CCO, the activity coefficient reads like this: (249.94 K) 6.08 ± 0.18; (270.01 K) 5.85 ± 0.18; (289.99 K) 5.62 ± 0.17; (310 K) 5.35 ± 0.16; (329.99 K) 5.04 ± 0.15.
On to `CC(F)F` [1,1-difluoroethane] + C=CCO, for which the activity coefficient reads like this: (249.94 K) 5.09 ± 0.15; (270.06 K) 4.94 ± 0.15; (289.99 K) 4.68 ± 0.14; (309.98 K) 4.39 ± 0.13; (329.99 K) 4.02 ± 0.12.

The values are drawn from the NIST ThermoML archive (doi:10.1021/je0502647).
